Results on 23 molecules are retold here after patent US20030212123A1, “COX-2 selective carprofen for treating pain and inflammation in dogs” (Pfizer Inc., priority 1997, published 2003).

Like-named read-outs stand apart in the source and are kept apart here.

What all share (assay type): cell-based, dog
The target of assay [1] is T1, canine COX-1 (Canis lupus familiaris, UniProt Q8HZR1).
T1 construct: from tissue; host or cells: washed platelets from donor dog blood
T1 sequence (Q8HZR1 28-603): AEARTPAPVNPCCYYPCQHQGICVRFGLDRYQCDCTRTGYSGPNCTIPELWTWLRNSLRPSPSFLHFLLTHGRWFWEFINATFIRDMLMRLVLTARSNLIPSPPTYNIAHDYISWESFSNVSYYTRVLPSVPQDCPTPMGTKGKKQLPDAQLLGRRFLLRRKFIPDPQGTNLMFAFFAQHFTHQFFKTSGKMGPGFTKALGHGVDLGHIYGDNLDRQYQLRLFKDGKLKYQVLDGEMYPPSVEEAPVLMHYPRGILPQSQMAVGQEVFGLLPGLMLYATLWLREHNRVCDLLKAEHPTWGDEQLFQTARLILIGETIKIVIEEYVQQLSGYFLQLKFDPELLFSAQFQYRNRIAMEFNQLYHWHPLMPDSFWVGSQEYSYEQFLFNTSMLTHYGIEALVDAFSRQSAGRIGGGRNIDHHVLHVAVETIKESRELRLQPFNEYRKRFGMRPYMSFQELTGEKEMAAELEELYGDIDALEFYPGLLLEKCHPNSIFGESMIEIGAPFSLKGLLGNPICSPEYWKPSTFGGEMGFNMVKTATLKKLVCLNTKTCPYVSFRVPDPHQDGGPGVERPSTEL
In words: Canine COX-1 activity: washed canine platelets, A23187-stimulated TXB2 by EIA. The note with it: results of repeated tests averaged. The method, then:
Protocol for Evaluation of Canine COX-1 Activity
Test drug compounds were solubilized and diluted the day before the assay was to be conducted with 0.1 mL of DMSO/9.9 mL of Hank's balanced salts solution (HBSS), and stored overnight at 4° C. On the day that the assay was carried out, citrated blood was drawn from a donor dog, centrifuged at 190×g for 25 min at room temperature, and the resulting platelet-rich plasma was then transferred to a new tube for further procedures. The platelets were washed by centrifuging at 1500×g for 10 min at room temperature. The platelets were washed with platelet buffer comprising Hank's buffer (Ca free) with 0.2% bovine serum albumin (BSA) and 20 mM HEPES. […] Then, 100 μl of canine washed platelets were added and the samples were incubated at 37° C. for 15 min, after which the reaction was stopped by adding 20 μl of 77 mM EDTA. The plates were then centrifuged at 2000×g for 10 min at […], after which 50 μl of supernatant was assayed for thromboxane B2 (TXB2) by enzyme-immunoassay (EIA).

Assay [2] has as its target T2, canine COX-2 (Canis lupus familiaris, UniProt Q8SPQ9).
T2 construct: host or cells: DH82 canine histocytoma cells, LPS-treated overnight
T2 sequence (Q8SPQ9 18-604): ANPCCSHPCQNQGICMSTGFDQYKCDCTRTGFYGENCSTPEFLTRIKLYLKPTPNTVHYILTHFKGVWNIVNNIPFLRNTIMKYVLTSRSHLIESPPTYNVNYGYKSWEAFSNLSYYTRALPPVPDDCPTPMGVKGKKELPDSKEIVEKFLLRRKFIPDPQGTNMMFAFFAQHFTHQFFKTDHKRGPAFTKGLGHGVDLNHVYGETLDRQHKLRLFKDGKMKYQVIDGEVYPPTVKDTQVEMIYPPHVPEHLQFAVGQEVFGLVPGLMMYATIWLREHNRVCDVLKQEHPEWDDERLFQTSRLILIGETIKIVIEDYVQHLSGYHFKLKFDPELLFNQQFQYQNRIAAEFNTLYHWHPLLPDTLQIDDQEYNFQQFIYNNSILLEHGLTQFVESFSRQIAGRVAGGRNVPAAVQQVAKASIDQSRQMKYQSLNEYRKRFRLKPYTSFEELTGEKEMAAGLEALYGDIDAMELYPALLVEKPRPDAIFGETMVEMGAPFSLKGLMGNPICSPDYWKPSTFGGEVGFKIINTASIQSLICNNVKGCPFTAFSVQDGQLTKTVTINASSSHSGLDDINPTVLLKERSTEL
In words: Canine COX-2 activity: LPS-treated DH82 canine histocytoma cells, PGE2 by EIA. The method, then: (§1) Protocol for Evaluation of Canine COX-2 Activity
(§2) A canine histocytoma (macrophage-like) cell line from the American Type Culture Collection designated as DH82, was used in setting up the protocol for evaluating the COX-2 inhibition activity of various test drug compounds. There was added to flasks of these cells 10 μg/mL of LPS, after which the flask cultures were incubated overnight. The same test drug compound dilutions as described above for the COX-1 protocol were used for the COX-2 assay and were prepared the day before the assay was carried out. […] The test sample suspensions were incubated for 1 hr and then centrifuged at 1000 rpm for 10 min at 4° C., after which 50 μl aliquots of each test drug sample were delivered to EIA plates. The EIA was performed for prostaglandin E2 (PGE2), and the pg/mL concentration of PGE2 was calculated from the standard line included on each plate. […] The results were averaged, and a single COX-1:COX-2 ratio was calculated.

Assay [3] relates to canine COX-2. The assay is described as above. The method, then:
as §1, §2

Where [4] appears, read: DH82 cells, PGE2, results of repeated tests averaged, read-out: COX-2 IC50.
Where [5] appears, read: ratio of canine COX-1 IC50 to COX-2 IC50, higher = more COX-2 selective.

With `NC(=O)N1C(=O)C(C(=O)c2cccs2)c2cc(F)c(Cl)cc21` (stereo not shown) [Ilonidap, 6-chloro-5-fluoro-2,3-dihydro-(hydroxy-2-thienylmethylene)-2-oxo-1H-indole-1-carboxamide], the IC50 – broadly, the concentration that inhibits the measured activity by half – in assay [1] worked out at 472 nM; in assay [2] (setting [4]), 270 nM. Also, the “COX-1/COX-2 Ratio” value in assay [3] (setting [5]) worked out at 1.75.
Turning to `Cc1c(Cl)cccc1Nc1ccccc1C(=O)O` [Tolfenamic acid, N-(3-chloro-o-tolyl)-anthranilic acid], the values for the IC50 in assay [1] and in assay [2] (setting [4]) were 206 nM and 13.7 nM, respectively. The “COX-1/COX-2 Ratio” value in assay [3] (setting [5]) stood at 15.0.
As for `COc1ccc2cc(CC(=O)O)ccc2c1` [6-MNA, 6-methoxy-2-naphthyl-acetic acid], the IC50 turned out to be 28300 nM in assay [1] and 4210 nM in assay [2] (setting [4]). In assay [3] (setting [5]), the “COX-1/COX-2 Ratio” value turned out to be 6.72.
On to `Cc1cccc(Nc2ccccc2C(=O)O)c1C` [Mefenamic acid, 2-[(2,3-dimethylphenyl)amino]-benzoic acid], for which the IC50 came to 403 nM in assay [1] and 36.2 nM in assay [2]. In addition, in assay [3] (setting [5]), the “COX-1/COX-2 Ratio” value is on record as 11.1.
As to `Cc1ccc(Cl)c(Nc2ccccc2C(=O)O)c1Cl` [Meclofenamic acid, 2-[(2,6-dichloro-3-methylphenyl)amino]-benzoic acid], the IC50 in assay [1] came out at 737 nM; in assay [2] (setting [4]), 47.8 nM. In assay [3] (setting [5]), the “COX-1/COX-2 Ratio” value is 15.4.
As for `O=C(O)c1cccnc1Nc1cccc(C(F)(F)F)c1` [Niflumic acid, 2-[3-(trifluoromethyl)anilino]nicotinic acid], the results for the 50% inhibitory concentration (IC50) in assay [1] and in assay [2] (setting [4]) were 1030 nM and 46.4 nM, respectively. For the same molecule, the “COX-1/COX-2 Ratio” value in assay [3] (setting [5]) came to 22.2.
`CC(C(=O)O)c1cccc(C(=O)c2ccccc2)c1` (stereo not drawn) [Ketoprofen, 3-benzoyl-α-methyl-benzeneacetic acid] yielded an IC50 in assay [2] of 123 nM.
`CC(C(=O)O)c1ccc(-c2ccccc2)c(F)c1` (stereo not drawn) [Flurbiprofen, 2-fluoro-α-methyl-[1,1′-biphenyl]-4-acetic acid]: the half-inhibitory concentration (IC50) in assay [1] worked out at 505 nM.
For the molecule `O=C(O)c1ccccc1Nc1cccc(C(F)(F)F)c1` [Flufenamic acid, 2-{[3-(trifluoromethyl)phenyl]amino}-benzoic acid], the IC50 in assay [1] stood at 2310 nM; in assay [2] (setting [4]), 47.5 nM. In addition, in assay [3] (setting [5]), the “COX-1/COX-2 Ratio” value amounted to 48.6.
On to `C[C@@H](C(=O)O)c1ccc2c(c1)[nH]c1ccc(Cl)cc12` [Carprofen (R-)], for which the IC50 in assay [1] is over 25000 nM; in assay [2], 5970 nM.
Consider `Cc1c(Nc2ncccc2C(=O)O)cccc1C(F)(F)F` [Flunixin, 2-{[2-methyl-3-(trifluoromethyl)-phenyl]amino}-3-pyridinecarboxylic acid; compounded with 1-deoxy-1-(methylamino)-D-glucitol(1:1)], for which the figures for the IC50 in assay [1] and in assay [2] (setting [4]) were 7.68 nM and 12.1 nM, respectively. Also, the “COX-1/COX-2 Ratio” value in assay [3] (setting [5]) was 0.635.
For the molecule `CN1C(C(=O)Nc2ccccn2)=C(O)c2ccccc2S1(=O)=O` [Piroxicam, 4-hydroxyy-2-methyl-N-2-pyridinyl-2H-1,2-benzothiazine-3-carboxamide-1,1-dioxide], the IC50 in assay [1] was determined as 223 nM.
On to `C=CCOc1ccc(CC(=O)O)cc1Cl` [Alclofenac, 3-chloro-4-(2-propenyloxy)-benzene acetic acid], for which the IC50 in assay [1] turned out to be 13200 nM; in assay [2] (setting [4]), 7410 nM. Besides, the “COX-1/COX-2 Ratio” value in assay [3] (setting [5]) was 1.78.
On to `CC(=O)Oc1ccccc1C(=O)O` [Aspirin, 2-(acetyloxy)-benzoic acid], for which the IC50 in assay [1] was 34300 nM; in assay [2] it was over 100000 nM. For the same molecule, in assay [3] (setting [5]), the “COX-1/COX-2 Ratio” value is on record as under 0.343.
In the case of `O=C(O)Cc1ccc(-c2ccccc2)cc1` [Felbinac, [1,1′-biphenyl]-4-acetic acid], the values for the IC50 in assay [1] and in assay [2] (setting [4]) were 2540 nM and 362 nM, respectively. For the same molecule, in assay [3] (setting [5]), the “COX-1/COX-2 Ratio” value turned out to be 7.01.
On to `CCCCC1C(=O)N(c2ccccc2)N(c2ccccc2)C1=O` [Phenylbutazone, 4-butyl-1,2-diphenyl-3,5pyrazolidinedione], for which the IC50 in assay [2] (setting [4]) was found to be 3790 nM.
In assay [2], `CS(=O)(=O)Nc1ccc([N+](=O)[O-])cc1Oc1ccccc1` [Nimesulide, 4′-nitro-2′-phenoxymethanesulfonanilide] yielded an IC50 of 56.5 nM.
Molecule `NC(=O)N1C(=O)C(C(=O)c2cccs2)c2cc(Cl)ccc21` (stereo not shown) [Tenidap, 5-chloro-2,3-dihydro-3-(hydroxy-2-thienylmethylene)-2-oxo-1H-indole-1-carboxamide] returned an IC50 in assay [1] of 469 nM.
The molecule `Cc1cnc(NC(=O)C2=C(O)c3ccccc3S(=O)(=O)N2C)s1` [Meloxicam, 4-hydroxy-2-methyl-N-(5-methyl-2-thiazolyl)-2H-1,2-benzothiazine-3-carboxamide] came in with an IC50 in assay [1] of 891 nM.
`CS(=O)(=O)Nc1ccc([N+](=O)[O-])cc1OC1CCCCC1` [NS-398, N-[2-(cyclohexyloxy)-4-nitrophenyl]-methanesulfonamide] had an IC50 in assay [1] of 587 nM.
Take `C[C@H](C(=O)O)c1ccc2c(c1)[nH]c1ccc(Cl)cc12` [Carprofen (S-), (S)-6-chloro-α-methyl-carbazole-2-acetic acid]: the IC50 stood at 6710 nM in assay [1] and 37.1 nM in assay [2].
As to `CCc1cccc2c3c([nH]c12)C(CC)(CC(=O)O)OCC3` (stereo not shown) [Etodolac, 1,8-diethyl-1,3,4,9-tetrahydro-pyrano[3,4-b]indole-1-acetic acid], the IC50 in assay [1] worked out at 1330 nM; in assay [2], 2570 nM. For the same molecule, the “COX-1/COX-2 Ratio” value in assay [3] is given as 0.517.
The molecule `COc1ccc2cc(C(C)C(=O)O)ccc2c1` (stereo not drawn) [Naproxen, 6-methoxy-α-methyl-2-naphthaleneacetic acid] came in with an IC50 in assay [2] of 626 nM.
